# Data as given in patent US20230143612A1 (Arbutus Biopharma Corporation, priority 2020, published 2023).
# pIC50: −log10 of the molar value.
# Biological target: PD-L1 His protein / PD-1 Fc protein (Homo sapiens, UniProt Q9NZQ7)
# Assay: HTRF Assay (PD-1/PD-L1 interaction)
# Assay type: binding
# Details: PD-L1 His 6 nM, PD-1 Fc 6 nM
# Procedure: PD-L1 His protein was prepared and added at the final concentration of 6 nM in the White opaque 384 well plate (Corning cat #3824BC). PD-L1 small molecule inhibitors were diluted by 3-fold starting from 20 μM and a final concentration of 0.001 μM and added to the well. PD-1 Fc protein was added at the final concentration of 6 nM. PD-L1 His protein, PD-L1 small molecule inhibitors, and PD1 Fc proteins were added to the well in this order, with each 5 μl volume, and were incubated for 15 minutes at room temperature. PAb anti-Human IgG-XL665 (Cisbio, cat #61HFCXLA) and Mab anti-6HIS Tb cryptate Gold (Cisbio, cat #61HI2TLA) were mixed at 6.7 nM and 0.35 nM respectively, and total 5 μl volume of mixture was added to the well and incubated at room temperature for 1 hour. The plate was read using PerkinElmer Envision plate reader and data was analyzed by Prism 6 software.
# Sequence of PD-L1 His protein / PD-1 Fc protein (Q9NZQ7 19-238 limits assumed): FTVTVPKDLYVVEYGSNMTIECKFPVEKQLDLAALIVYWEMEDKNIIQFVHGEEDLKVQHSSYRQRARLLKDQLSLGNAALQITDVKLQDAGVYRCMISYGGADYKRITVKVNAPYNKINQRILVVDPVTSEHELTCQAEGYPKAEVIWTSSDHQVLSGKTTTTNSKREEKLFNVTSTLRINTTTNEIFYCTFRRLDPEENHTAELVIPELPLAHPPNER
row,SMILES,pIC50
1,"COc1nc(-c2cccc(-c3cccc(-c4ccn5c(=O)c(CN6CC7(C(=O)O)CCC6CC7)cnc5c4)c3Cl)c2Cl)ccc1CNC[C@@H]1CCC(=O)N1 [Example 127, (S)-2-((8-(2,2′-Dichloro-3′-(6-methoxy-5-((((5-oxopyrrolidin-2-yl)methyl)amino)methyl)pyridin-2-yl)-[1,1′-biphenyl]-3-yl)-4-oxo-4H-pyrido[1,2-a]pyrimidin-3-yl)methyl)-2-azabicyclo[2.2.2]octane-4-carboxylic acid]",9.52
2,"COc1nc(-c2cccc(-c3cccc(-c4ccc(CN(C=O)C[C@@H]5CCC(=O)N5)c(OC)n4)c3Cl)c2Cl)ccc1CNC[C@@H]1CCC(=O)N1 [Example 330, N-((6-(2,2′-Dichloro-3′-(6-methoxy-5-(((((S)-5-oxopyrrolidin-2-yl)methyl)amino)methyl)pyridin-2-yl)-[1,1′-biphenyl]-3-yl)-2-methoxypyridin-3-yl)methyl)-N—(((S)-5-oxopyrrolidin-2-yl)methyl)formamide]",9.10
3,"COc1nc(-c2cccc(-c3cccc(-c4ccn5c(=O)c(CNCC67CCC(C6)C(=O)N7)cnc5c4)c3Cl)c2Cl)ccc1CNC[C@@H]1CCC(=O)N1 (stereo partly drawn) [Example 252, 8-[2-Chloro-3-[2-chloro-3-[6-methoxy-5-[[[(2S)-5-oxopyrrolidin-2-yl]methylamino]methyl]-2-pyridyl]phenyl]phenyl]-3-[[(3-oxo-2-azabicyclo[2.2.1]heptan-1-yl)methylamino]methyl]pyrido[1,2-a]pyrimidin-4-one]",8.33
4,"COc1nc(-c2cccc(-c3cccc(-c4ccc5c(CNC6CCN(C(C)=O)CC6)cn(C)c5n4)c3Cl)c2Cl)ccc1CNC[C@@H]1CCC(=O)N1 [Example 415, (5S)-5-[[[6-[3-[3-[3-[[(1-Acetyl-4-piperidyl)amino]methyl]-1-methyl-pyrrolo[2,3-b]pyridin-6-yl]-2-chloro-phenyl]-2-chloro-phenyl]-2-methoxy-3-pyridyl]methylamino]methyl]pyrrolidin-2-one]",6.66
5,"Cc1c(COc2cc(OCc3cncc(C#N)c3)c(CNCCO)cc2Cl)cccc1-c1cccc(-n2ccc(CNCCO)cc2=O)c1C [Example 23, 5-((4-Chloro-2-(((2-hydroxyethyl)amino)methyl)-5-((3′-(4-(((2-hydroxyethyl)amino)methyl)-2-oxopyridin-1(2H)-yl)-2,2′-dimethyl-[1,1′-biphenyl]-3-yl)methoxy)phenoxy)methyl)nicotinonitrile]",7.48
6,"Cc1c(COc2cc(OCc3cncc(C#N)c3)c(CNCCO)cc2Cl)cccc1-c1cccc(-c2ccc3c(c2)C(=O)N(C)CC(=O)N3CCNCCO)c1C [Example 8, 5-((4-Chloro-5-((3′-(1-(2-((2-hydroxyethyl)amino)ethyl)-4-methyl-2,5-dioxo-2,3,4,5-tetrahydro-1H-benzo[e][1,4]diazepin-7-yl)-2,2′-dimethyl-[1,1′-biphenyl]-3-yl)methoxy)-2-(((2-hydroxyethyl)amino)methyl)phenoxy)methyl)nicotinonitrile]",9.10
7,"COc1nc(-c2cccc(-c3cccc(-c4ccn5c(=O)c(CNC[C@@H]6CCC(=O)N6)cnc5c4)c3Cl)c2Cl)cc(Cl)c1CNC[C@@H]1CCC(=O)N1 [Example 335, 8-[2-Chloro-3-[2-chloro-3-[4-chloro-6-methoxy-5-[[[(2S)-5-oxopyrrolidin-2-yl]methylamino]methyl]-2-pyridyl]phenyl]phenyl]-3-[[[(2S)-5-oxopyrrolidin-2-yl]methylamino]methyl]pyrido[1,2-a]pyrimidin-4-one]",8.68
8,"COc1nc(-c2cccc(-c3cccc(-c4cc(F)c(CNC[C@@H]5CCC(=O)N5)c(OC)n4)c3Cl)c2Cl)ccc1CNC[C@@H]1CCC(=O)N1 [Example 232, (S)-5-((((6-(2,2′-dichloro-3′-(4-fluoro-6-methoxy-5-(((((S)-5-oxopyrrolidin-2-yl)methyl)amino)methyl)pyridin-2-yl)-[1,1′-biphenyl]-3-yl)-2-methoxypyridin-3-yl)methyl)amino)methyl)pyrrolidin-2-one]",7.20
9,"COc1nc(-c2cccc(-c3cccc(-c4ccn5c(=O)c(CN(C)C[C@H](C)O)cnc5c4)c3Cl)c2Cl)ccc1CNC[C@@H]1CCC(=O)N1 [Example 319, 8-[2-Chloro-3-[2-chloro-3-[6-methoxy-5-[[[(2S)-5-oxopyrrolidin-2-yl]methylamino]methyl]-2-pyridyl]phenyl]phenyl]-3-[[[(2S)-2-hydroxypropyl]-methyl-amino]methyl]pyrido[1,2-a]pyrimidin-4-one]",10.00
10,"COc1nc(-c2cccc(-c3cccc(-c4ccn5c(=O)c(CNC[C@@H]6C[C@H]6CO)cnc5c4)c3Cl)c2Cl)ccc1CNC[C@@H]1CCC(=O)N1 (racemic) [Example 245, 8-(2,2′-dichloro-3′-(6-methoxy-5-(((((S)-5-oxopyrrolidin-2-yl)-methyl)amino)-methyl)-pyridin-2-yl)-[1,1′-biphenyl]-3-yl)-3-(((((1R,2R)-2-(hydroxymethyl)-cyclopropyl)methyl)amino)-methyl)-4H-pyrido[1,2-a]pyrimidin-4-one]",8.68
11,"COc1nc(-c2cccc(-c3cccc(-c4ccn5c(=O)c(CNCCc6c[nH]cn6)cnc5c4)c3Cl)c2Cl)ccc1CNC[C@@H]1CCC(=O)N1 [Example 215, 8-[2-chloro-3-[2-chloro-3-[6-methoxy-5-[[[(2S)-5-oxopyrrolidin-2-yl]methylamino]methyl]-2-pyridyl]phenyl]phenyl]-3-[[2-(1H-imidazol-4-yl)ethylamino]methyl]pyrido[1,2-a]pyrimidin-4-one]",8.10
12,"COc1nc(-c2cccc(-c3cccc(-c4ccc5nc(CNC[C@@H]6CCC(=O)N6)cc(=O)n5c4)c3Cl)c2Cl)ccc1CNC[C@@H]1CCC(=O)N1 [Example 212, 7-(2,2′-Dichloro-3′-(6-methoxy-5-(((((S)-5-oxopyrrolidin-2-yl)methyl)amino)methyl)pyridin-2-yl)-[1,1′-biphenyl]-3-yl)-2-(((((S)-5-oxopyrrolidin-2-yl)methyl)amino)methyl)-4H-pyrido[1,2-a]pyrimidin-4-one]",10.00
13,"COc1nc(-c2cccc(-c3cccc(-c4cc5c(=O)n(C)c(CNCCCF)nn5c4)c3Cl)c2Cl)ccc1CNC[C@@H]1CCC(=O)N1 [Example 437, (S)-6-(2,2′-Dichloro-3′-(6-methoxy-5-((((5-oxopyrrolidin-2-yl)methyl)amino)methyl)pyridin-2-yl)-[1,1′-biphenyl]-3-yl)-2-(((3-fluoropropyl)amino)methyl)-3-methylpyrrolo[2,1-f][1,2,4]triazin-4(3H)-one]",7.28
14,"COc1nc(-c2cccc(-c3cccc(-c4ccn5c(=O)c(CNCC(C)(C)CO)cnc5c4)c3Cl)c2Cl)ccc1CNC[C@@H]1CCC(=O)N1 [Example 273, (S)-8-(2,2′-dichloro-3′-(6-methoxy-5-((((5-oxopyrrolidin-2-yl)methyl)amino)methyl)pyridin-2-yl)-[1,1′-biphenyl]-3-yl)-3-(((3-hydroxy-2,2-dimethylpropyl)amino)methyl)-4H-pyrido[1,2-a]pyrimidin-4-one]",8.38
15,"Cc1c(-c2ccn3c(=O)c(CNC[C@@H]4CCC(=O)N4)cnc3c2)cccc1-c1cccc(-c2ccc3c(c2)CC(NC(=O)[C@@H]2CCCN2)C3)c1Cl (mixture of isomers) [Example 46, (2S)—N-(5-(2-Chloro-2′-methyl-3′-(4-oxo-3-(((((S)-5-oxopyrrolidin-2-yl)methyl)amino)methyl)-4H-pyrido[1,2-a]pyrimidin-8-yl)-[1,1′-biphenyl]-3-yl)-2,3-dihydro-1H-inden-2-yl)pyrrolidine-2-carboxamide]",6.28
